Test results taken from paper PMC10485906, “Development of a Dihydroquinoline–Pyrazoline GluN2C/2D-Selective Negative Allosteric Modulator of the N-Methyl-D-aspartate Receptor” (ACS Chemical Neuroscience, 2023).
Read-outs that look alike come from different tables or passages of the source.

Experiments:
[1] = target: T1, GluN1/GluN2A (Rattus norvegicus, UniProt P35439+Q00959); experiment: Two-electrode voltage-clamp recordings, Xenopus laevis oocytes, GluN1/GluN2A; type: cell-based; conditions: 100 μM glutamate, 30 μM glycine; for remaining activity at 30 µM: 30 μM test compound, mean ± SEM, read-out: I 30 μM / I control GluN2A; for IC50: read-out: IC50 GluN2A [95% CI]
T1 construct: expressed in transfected cells; host or cells: Xenopus laevis oocytes (cRNA injection)
Procedure: (§1) All target compounds were evaluated for NMDAR antagonism using two-electrode voltage-clamp recordings from Xenopus laevis oocytes coexpressing recombinant GluN1 and GluN2A-D subunits (Table 1).[32],[42],[33] All analogues were assessed as either a racemic (2b, 2e–2r) or diastereomeric (2d) mixture to simplify purification and streamline in vitro analysis. […] Moreover, as illustrated by the significant loss of NMDAR activity observed with nitrile 2e, the DQP allosteric site necessitated an H-bond donor/acceptor relationship at the carboxylate position. […] The loss of NMDAR activity observed with the trifluoro analogue 2j (Table S1) reinforced the necessity for an H-bond donor/acceptor relationship to maintain allosteric binding and established that fluorine substitution alone is ineffective. […] A single methyl substitution of the amide in compound 2q improved selectivity against GluN2A and had similar potency as 2a, whereas dual methyl substitution reduced potency (2r). We expect that this is likely due to the ability of the […] of the amide to accept hydrogen bonds while the amide can readily donate a proton.
(§2) Unfertilized Xenopus laevis oocytes were obtained from Ecocyte (Austin, TX), or ovaries were purchased from Xenopus 1 (Dexter, MI) and oocytes prepared as previously described.[42],[47] Two-electrode voltage-clamp recordings were performed on oocytes expressing recombinant rat GluN1/GluN2A, GluN1/GluN2B, GluN1/GluN2C, or GluN1/GluN2D. cDNAs for rat GluN1-1a (referred to as GluN1; NCBI Reference Sequence NM_017010.2), GluN2A (NM_012573.4), GluN2B (NM_012574.1), GluN2C (NM_012575.3), and GluN2D (NM_022797.2) were provided by Dr. S. Heinemann from the Salk Institute, Dr. S. Nakanishi from Kyoto University, and Dr. P. Seeburg from the University of Heidelberg. Oocyte isolation, cRNA synthesis, and cRNA injections were performed as previously described.[32],[33],[47] Briefly, Xenopus laevis oocytes were injected with 5–10 ng of cRNA in RNase-free water with the GluN1:GluN2 ratio ranging from 1:1 to 1:5. Oocytes were incubated at 15–19 °C in Barth’s solution consisting of (in mM) 88 NaCl, 1 KCl, 2.4 NaHCO3, 10 HEPES, 0.82 MgSO4, 0.33 Ca(NO3)2, and 0.41 CaCl2 supplemented with 100 μg/mL gentamycin, 40 μg/mL streptomycin, and 50 μg/mL penicillin. Recordings were performed 2–4 days after injection with extracellular recording solution containing (in mM) 90 NaCl, 1 KCl, 10 HEPES, 0.5 BaCl2, and 0.01 EDTA at pH 7.4 adjusted with NaOH. To prevent a gradual increase in current response over the course of the experiment, some oocytes expressing GluN1/GluN2A were injected with 20–50 nL of 2–50 mM K-BAPTA. Concentration–response curves for test compounds were generated by applying a maximally effective concentration of glutamate (100 μM) and glycine (30 μM), followed by glutamate and glycine with variable concentrations of test compounds up to 30 μM. The test compounds were prepared as 20 mM stock solutions in DMSO and diluted to the final concentration in recording solution. The DMSO content was 0.05–0.5% (v/v). […] Methods for off-target analysis are given in the Supporting Information.
(§3) Confidence intervals were determined for the log(IC50). The time course of relaxation during inhibitor application or deactivation following rapid removal of NMDA or glutamate was fitted by the equation [drawing 5] 2

[2] = target: T2, GluN1/GluN2B (Rattus norvegicus, UniProt P35439+Q00960); experiment: Two-electrode voltage-clamp recordings, Xenopus laevis oocytes, GluN1/GluN2B; type: cell-based; conditions: 100 μM glutamate, 30 μM glycine; for remaining activity at 30 µM: 30 μM test compound, mean ± SEM, read-out: I 30 μM / I control GluN2B; for IC50: read-out: IC50 GluN2B [95% CI]
T2 construct: GluN2B (NM_012574.1), GluN2C (NM_012575.3), and GluN2D (NM_022797.2) were provided by; expressed in transfected cells; host or cells: Xenopus laevis oocytes (cRNA injection)
Procedure: as §1, §2, §3

[3] = target: GluN1/GluN2C (Rattus norvegicus, UniProt P35439+Q00961); experiment: Two-electrode voltage-clamp recordings, Xenopus laevis oocytes, GluN1/GluN2C; type: cell-based; parameters: GluN2B (NM_012574.1), GluN2C (NM_012575.3), and GluN2D (NM_022797.2) were provided by; expressed in transfected cells; host or cells: Xenopus laevis oocytes (cRNA injection); conditions: 100 μM glutamate, 30 μM glycine; for remaining activity at 30 µM: 30 μM test compound, mean ± SEM, read-out: I 30 μM / I control GluN2C; for IC50: read-out: IC50 GluN2C [95% CI]
Procedure: as §1, §2, §3

[4] = target: GluN1/GluN2D (Rattus norvegicus, UniProt P35439+Q62645); experiment: Two-electrode voltage-clamp recordings, Xenopus laevis oocytes, GluN1/GluN2D; type: cell-based; parameters: GluN2B (NM_012574.1), GluN2C (NM_012575.3), and GluN2D (NM_022797.2) were provided by; expressed in transfected cells; host or cells: Xenopus laevis oocytes (cRNA injection); conditions: 100 μM glutamate, 30 μM glycine; for remaining activity at 30 µM: 30 μM test compound, mean ± SEM, read-out: I 30 μM / I control GluN2D; for IC50: read-out: IC50 GluN2D [95% CI]
Procedure: as §1, §2, §3

[5] = target: GluN1/GluN2D (Rattus norvegicus, UniProt Q62645); experiment: as above; type: cell-based; parameters: GluN2B (NM_012574.1), GluN2C (NM_012575.3), and GluN2D (NM_022797.2) were provided by; expressed in transfected cells; host or cells: Xenopus laevis oocytes (cRNA injection); conditions: for Selectivity 2A IC50 / 2D IC50: GluN2D over GluN2A; for Selectivity 2B IC50 / 2D IC50: GluN2D over GluN2B
Procedure: as §1, §2, §3

[6] = target: GluN1/GluN2C (Rattus norvegicus, UniProt Q00961); experiment: Two-electrode voltage-clamp recordings, Xenopus laevis oocytes, GluN1/GluN2C; type: cell-based; parameters: GluN2B (NM_012574.1), GluN2C (NM_012575.3), and GluN2D (NM_022797.2) were provided by; expressed in transfected cells; host or cells: Xenopus laevis oocytes (cRNA injection); conditions: 100 μM glutamate, 30 μM glycine, mean ± SEM
Procedure: as §1, §2, §3

[7] = target: T3, GluN1/GluN2A (Rattus norvegicus, UniProt Q00959); experiment: Two-electrode voltage-clamp recordings, Xenopus laevis oocytes, GluN1/GluN2A; type: cell-based; conditions: tested at 3 μM; 100 μM glutamate, 30 μM glycine; mean ± SEM
T3 construct: expressed in transfected cells; host or cells: Xenopus laevis oocytes (cRNA injection)
Procedure: as §1, §2, §3

[8] = target: T4, GluN1/GluN2B (Rattus norvegicus, UniProt Q00960); experiment: Two-electrode voltage-clamp recordings, Xenopus laevis oocytes, GluN1/GluN2B; type: cell-based; conditions: tested at 3 μM; 100 μM glutamate, 30 μM glycine; mean ± SEM
T4 construct: GluN2B (NM_012574.1), GluN2C (NM_012575.3), and GluN2D (NM_022797.2) were provided by; expressed in transfected cells; host or cells: Xenopus laevis oocytes (cRNA injection)
Procedure: as §1, §2, §3

[9] = Brain homogenate tissue binding and stability (RED device); type: in vitro ADME, mouse
Procedure: Carbamazepine (Apin Chemicals) served as a positive control for brain tissue binding. Test compounds and the positive control were initially dissolved in DMSO to make 1 mM stock solutions. […] A rapid equilibrium dialysis (RED) device (Thermo Scientific) containing a dialysis membrane with a molecular weight cutoff of 8000 Da was used to assess tissue binding and metabolic stability. […] The test compounds and positive control (200 μL of 5 μM solution) were added to the red chamber of the dialysis insert, while the white chamber was filled with dialysis buffer (350 μL). The RED device was then sealed with an adhesive film and incubated at 37 °C with shaking (300 rpm) for 4 h. For the initial time point (t = 0 min), 50 μL aliquots of test compounds and the positive control were added to 96-deep well plates (0.7 mL per well) and quenched with 400 μL of MeCN. Following dialysis, another 50 μL aliquot of the tested samples was removed from each well (brain homogenate and buffer) and diluted with an equal volume of the opposite matrix to nullify any matrix effects. […] The supernatant (100 μL) was subsequently transferred to 96-deep well plates for LC-MS/MS analysis. Prodrug metabolism and 2i concentrations were determined by fit-for-purpose LC-MS/MS methods on a nine-point calibration curve ranging from 0.12 to 7.5 μM.

Chain of GluN1/GluN2D (Rattus norvegicus, UniProt Q62645) (Q62645 28-1323, other chains not shown): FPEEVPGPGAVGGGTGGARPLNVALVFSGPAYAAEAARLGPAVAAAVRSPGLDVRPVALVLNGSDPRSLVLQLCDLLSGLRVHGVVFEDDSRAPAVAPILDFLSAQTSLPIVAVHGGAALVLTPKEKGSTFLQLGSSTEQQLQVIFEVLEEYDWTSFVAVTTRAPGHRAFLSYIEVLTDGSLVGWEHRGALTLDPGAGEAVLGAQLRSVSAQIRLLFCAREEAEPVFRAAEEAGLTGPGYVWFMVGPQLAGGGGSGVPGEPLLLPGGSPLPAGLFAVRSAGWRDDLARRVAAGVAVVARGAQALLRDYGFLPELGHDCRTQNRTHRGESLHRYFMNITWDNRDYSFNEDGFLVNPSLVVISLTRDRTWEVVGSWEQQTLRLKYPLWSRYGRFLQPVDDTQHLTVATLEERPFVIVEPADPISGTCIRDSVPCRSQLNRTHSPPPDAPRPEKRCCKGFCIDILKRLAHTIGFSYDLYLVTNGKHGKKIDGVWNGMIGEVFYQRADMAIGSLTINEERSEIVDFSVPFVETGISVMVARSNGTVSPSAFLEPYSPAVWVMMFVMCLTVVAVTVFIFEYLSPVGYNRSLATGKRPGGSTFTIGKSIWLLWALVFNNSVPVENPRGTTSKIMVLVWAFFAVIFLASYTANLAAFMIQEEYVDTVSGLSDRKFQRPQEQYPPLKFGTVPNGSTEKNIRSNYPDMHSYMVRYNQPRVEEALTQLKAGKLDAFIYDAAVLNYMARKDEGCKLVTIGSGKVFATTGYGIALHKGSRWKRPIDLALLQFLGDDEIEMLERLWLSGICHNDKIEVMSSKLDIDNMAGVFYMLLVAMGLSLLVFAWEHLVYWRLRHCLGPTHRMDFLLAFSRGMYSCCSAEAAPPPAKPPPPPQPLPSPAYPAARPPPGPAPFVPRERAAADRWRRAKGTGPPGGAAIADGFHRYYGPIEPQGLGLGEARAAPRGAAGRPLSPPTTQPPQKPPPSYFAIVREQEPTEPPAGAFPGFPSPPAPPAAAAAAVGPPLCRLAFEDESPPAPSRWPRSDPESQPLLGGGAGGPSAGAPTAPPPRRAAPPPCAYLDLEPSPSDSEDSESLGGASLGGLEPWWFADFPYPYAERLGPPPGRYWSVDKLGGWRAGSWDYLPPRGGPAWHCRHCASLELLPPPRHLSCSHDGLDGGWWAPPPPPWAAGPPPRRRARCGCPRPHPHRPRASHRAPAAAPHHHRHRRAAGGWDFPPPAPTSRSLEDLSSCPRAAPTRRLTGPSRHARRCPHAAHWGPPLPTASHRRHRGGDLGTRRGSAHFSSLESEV
Chain of GluN1/GluN2D (Rattus norvegicus, UniProt P35439+Q62645) (Q62645 28-1323, other chains not shown): as above
Chain of GluN1/GluN2C (Rattus norvegicus, UniProt P35439+Q00961) (Q00961 20-1237, other chains not shown): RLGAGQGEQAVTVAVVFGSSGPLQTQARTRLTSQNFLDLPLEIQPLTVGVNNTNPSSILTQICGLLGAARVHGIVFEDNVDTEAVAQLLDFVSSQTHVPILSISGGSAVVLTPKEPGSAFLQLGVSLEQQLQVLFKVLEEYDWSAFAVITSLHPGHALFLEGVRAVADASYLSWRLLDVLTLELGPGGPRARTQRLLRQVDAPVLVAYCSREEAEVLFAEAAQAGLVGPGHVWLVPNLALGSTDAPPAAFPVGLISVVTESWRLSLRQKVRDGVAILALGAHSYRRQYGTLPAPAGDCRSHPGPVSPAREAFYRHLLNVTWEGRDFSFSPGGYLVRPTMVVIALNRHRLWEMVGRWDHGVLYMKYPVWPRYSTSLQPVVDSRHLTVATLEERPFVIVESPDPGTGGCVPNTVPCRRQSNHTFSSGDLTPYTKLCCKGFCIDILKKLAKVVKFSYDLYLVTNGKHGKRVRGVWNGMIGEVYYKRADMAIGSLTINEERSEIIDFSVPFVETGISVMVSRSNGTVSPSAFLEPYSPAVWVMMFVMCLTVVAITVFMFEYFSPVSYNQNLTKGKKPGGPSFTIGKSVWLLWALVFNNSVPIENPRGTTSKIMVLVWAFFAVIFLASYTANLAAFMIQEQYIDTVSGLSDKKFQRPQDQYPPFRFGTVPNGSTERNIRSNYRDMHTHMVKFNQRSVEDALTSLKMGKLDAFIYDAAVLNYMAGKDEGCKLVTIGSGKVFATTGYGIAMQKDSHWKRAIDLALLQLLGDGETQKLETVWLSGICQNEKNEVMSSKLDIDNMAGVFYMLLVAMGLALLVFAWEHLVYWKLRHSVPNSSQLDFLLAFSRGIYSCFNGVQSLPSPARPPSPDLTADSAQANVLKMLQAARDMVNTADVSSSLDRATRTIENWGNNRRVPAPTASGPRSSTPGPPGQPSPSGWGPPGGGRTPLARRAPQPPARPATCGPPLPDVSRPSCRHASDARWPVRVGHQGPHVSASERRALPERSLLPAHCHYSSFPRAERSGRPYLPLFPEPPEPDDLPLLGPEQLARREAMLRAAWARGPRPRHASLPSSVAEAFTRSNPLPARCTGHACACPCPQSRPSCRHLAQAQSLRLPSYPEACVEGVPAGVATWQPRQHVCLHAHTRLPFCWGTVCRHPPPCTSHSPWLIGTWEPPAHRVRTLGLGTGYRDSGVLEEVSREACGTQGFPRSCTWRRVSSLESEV
T2 sequence (Q00960 27-1482, other chains not shown): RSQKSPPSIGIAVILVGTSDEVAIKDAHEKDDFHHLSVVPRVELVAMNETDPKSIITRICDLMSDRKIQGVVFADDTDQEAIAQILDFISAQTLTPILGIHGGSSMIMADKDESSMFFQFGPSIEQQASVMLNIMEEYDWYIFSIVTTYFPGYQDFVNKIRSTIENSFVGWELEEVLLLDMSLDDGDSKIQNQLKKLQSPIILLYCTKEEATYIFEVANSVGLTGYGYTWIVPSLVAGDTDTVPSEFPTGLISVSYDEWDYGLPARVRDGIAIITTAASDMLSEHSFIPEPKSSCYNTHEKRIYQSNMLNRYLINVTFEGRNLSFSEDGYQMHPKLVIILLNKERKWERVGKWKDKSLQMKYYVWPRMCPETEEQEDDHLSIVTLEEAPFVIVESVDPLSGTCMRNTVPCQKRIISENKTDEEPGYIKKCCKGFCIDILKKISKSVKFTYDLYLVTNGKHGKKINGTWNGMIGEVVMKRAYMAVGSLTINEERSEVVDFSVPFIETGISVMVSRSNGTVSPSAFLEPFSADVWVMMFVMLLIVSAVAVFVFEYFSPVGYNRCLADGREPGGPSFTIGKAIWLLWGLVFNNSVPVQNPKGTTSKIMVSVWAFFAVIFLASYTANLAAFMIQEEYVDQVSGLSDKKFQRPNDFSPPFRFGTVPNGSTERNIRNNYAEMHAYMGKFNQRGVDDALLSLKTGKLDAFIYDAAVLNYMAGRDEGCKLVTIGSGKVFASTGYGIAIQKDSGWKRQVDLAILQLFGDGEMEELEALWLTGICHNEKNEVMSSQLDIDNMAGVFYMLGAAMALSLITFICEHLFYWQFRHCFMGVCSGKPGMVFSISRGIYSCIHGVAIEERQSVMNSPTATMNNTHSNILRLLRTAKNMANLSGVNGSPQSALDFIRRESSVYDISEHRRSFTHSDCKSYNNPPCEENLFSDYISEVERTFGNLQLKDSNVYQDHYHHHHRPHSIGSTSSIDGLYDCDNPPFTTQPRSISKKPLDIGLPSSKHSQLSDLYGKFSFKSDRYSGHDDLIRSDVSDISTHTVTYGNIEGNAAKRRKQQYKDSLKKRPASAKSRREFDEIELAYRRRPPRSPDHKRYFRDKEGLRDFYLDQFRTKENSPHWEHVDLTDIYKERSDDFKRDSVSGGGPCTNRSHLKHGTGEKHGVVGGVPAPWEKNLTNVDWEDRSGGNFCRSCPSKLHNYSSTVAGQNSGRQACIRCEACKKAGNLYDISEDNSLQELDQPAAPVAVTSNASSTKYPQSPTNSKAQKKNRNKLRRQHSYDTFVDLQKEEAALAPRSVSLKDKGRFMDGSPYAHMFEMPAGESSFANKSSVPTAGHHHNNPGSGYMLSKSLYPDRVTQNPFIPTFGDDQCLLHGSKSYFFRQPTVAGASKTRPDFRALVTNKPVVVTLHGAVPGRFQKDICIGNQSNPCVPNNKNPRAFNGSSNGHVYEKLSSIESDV
Chain of GluN1/GluN2C (Rattus norvegicus, UniProt Q00961) (Q00961 20-1237, other chains not shown): as the sequence (Q00961 20-1237, other chains not shown) above

SMILES	remaining activity at 30 µM [1] [%]	IC50 [1] [µM]	remaining activity at 30 µM [2] [%]	IC50 [2] [µM]	remaining activity at 30 µM [3] [%]	IC50 [3] [µM]	remaining activity at 30 µM [4] [%]	IC50 [4] [µM]	Selectivity 2A IC50 / 2D IC50 [5] [fold]	Selectivity 2B IC50 / 2D IC50 [5] [fold]	other results
O=C(CCc1nnn[nH]1)N1N=C(c2c(-c3ccc(Cl)cc3)c3ccccc3[nH]c2=O)CC1c1ccc(Cl)cc1 (stereo not shown) [2h]	29 ± 4.1	22	48 ± 1.9	29	2.3 ± 0.5	0.57	2.4 ± 0.56	0.52	42	56	
N#CCCC(=O)N1N=C(c2c(-c3ccc(Cl)cc3)c3ccccc3[nH]c2=O)CC1c1ccc(Cl)cc1 (stereo not shown) [2e]	94 ± 1.4		82 ± 2.4		67 ± 2.6	99	46 ± 5	28			
O=C(O)CCCC(=O)N1N=C(c2c(-c3ccc(Cl)cc3)c3ccccc3[nH]c2=O)CC1c1ccc(Cl)cc1 (stereo not shown) [2b]		25	57 ± 2.6	37		0.9		0.64	39	58	I / I control GluN2C ([6]; tested at 10 μM (footnote b)): 13 ± 1.3 ^b (1,8) %; I / I control GluN2D ([5]; tested at 10 μM (footnote b), 100 μM glutamate, 30 μM glycine, mean ± SEM): 5.9 ± 1.6 ^b (1,8) %
O=C(O)CC(F)(F)C(=O)N1N=C(c2c(-c3ccc(Cl)cc3)c3ccccc3[nH]c2=O)C[C@@H]1c1ccc(Cl)cc1 [(R)-(+)-2i]						0.51		0.31			I3 μM/Icontrol GluN2A [7]: 103 ± 2.5 (3, 16) %; I3 μM/Icontrol GluN2B [8]: 99 ± 2.4 (3, 12) %; I3 μM/Icontrol GluN2C ([6]; tested at 3 μM): 52 ± 2.1 (2, 12) %; I3 μM/Icontrol GluN2D ([5]; tested at 3 μM, 100 μM glutamate, 30 μM glycine, mean ± SEM): 42 ± 3.5 (2, 13) %
O=C(N1N=C(c2c(-c3ccc(Cl)cc3)c3ccccc3[nH]c2=O)CC1c1ccc(Cl)cc1)C(F)(F)F (stereo not shown) [2j]	96 ± 2.1		86 ± 2.3		100 ± 2.2		86 ± 2.8				
NC(=O)N1c2ccccc2C=Cc2ccccc21 [Carbamazepine, reference compound]											fraction unbound at 4 h, 5 µM ([9]; C57BL/6, mouse, brain homogenate (4 times diluted), pH 7.4, mouse brain tissue binding (free fraction in brain), read-out: % Unbound): 0.135; fraction unbound at 4 h, 5 µM ([9]; C57BL/6, mouse, brain homogenate (4 times diluted), pH 7.4, mouse brain tissue binding, RED, 4 h, read-out: % Bound Mean ± SD (converted)): 0.135; fraction unbound at 4 h, 5 µM ([9]; C57BL/6, mouse, brain homogenate (4 times diluted), pH 7.4, mouse brain tissue binding, RED, 4 h, read-out: % Bound R1 (converted)): 0.131; fraction unbound at 4 h, 5 µM ([9]; C57BL/6, mouse, brain homogenate (4 times diluted), pH 7.4, mouse brain tissue binding, RED, 4 h, read-out: % Bound R2 (converted)): 0.14; fraction unbound at 4 h, 5 µM ([9]; C57BL/6, mouse, brain homogenate (4 times diluted), pH 7.4, mouse brain tissue binding, read-out: fu): 0.135; remaining at 4 h, 5 µM ([9]; C57BL/6, mouse, brain homogenate (4 times diluted), pH 7.4, starting concentration 5 μM, 4 h): 105%; recovery at 4 h, 5 μM ([9]; C57BL/6, pH 7.4, mouse brain tissue binding, RED, 4 h): 91%
N[C@@H](CCC(=O)N1N=C(c2c(-c3ccc(Cl)cc3)c3ccccc3[nH]c2=O)CC1c1ccc(Cl)cc1)C(=O)O (stereo partly shown) [2d]	36 ± 5.2	15	48 ± 4	21	16 ± 5	2.1	3.1 ± 0.59	1.1	14	19	
